Starred links: 1 amine or outer side, 2 acyl side, 3 side chain; linkers in the order of their positions; H or OH if unused. Non-standard residues stand in square brackets, D forms with d. Residues, ends and D or L forms follow the SMILES beside them. ξ: configuration not given here. X1 = Cn1c(=NC(N)=O)ccn(C2SC(C(O)C(N[*:1])C(=O)[*:2])C(O)C2O)c1=O; Orn(N5-OH,N5-Ac) = CC(=O)N(O)CCC[C@H](N)C(=O)O; ξT = CC(O)C(N)C(=O)O; ξA = CC(N)C(=O)O

Common to all, as to assay: Hole test, inhibiting areola diameter, DST agar
Common to all, as to type: cell-based

Test [1] has as its system E. coli 14. Details: unit not given here. The conditions noted are these: medium DST agar. The source says: (§1) Activity against the germs listed below is found in vitro, on the basis of the diameter of the inhibiting areola.
Test [2] concerns E. coli T 7. Details: unit not given here. To be noted: medium DST agar.
Text: as §1

Test [3] concerns Staph. 133. To be noted: 1000 μg/ml, medium DST agar.
Text: as §1

The subject of test [4] is Prot. 1017. To be noted: 1000 μg/ml, medium DST agar.
Text: as §1

Turning to `CC(=O)N(O)CCC[C@H](NC(=O)[C@H](CCCN(O)C(C)=O)NC(=O)[C@@H](N)CCCN(O)C(C)=O)C(=O)NC(C(=O)NC(C(=O)O)C(O)C1SC(n2ccc(=NC(N)=O)n(C)c2=O)C(O)C1O)C(C)O` (some centres unmarked) [Compound 20] (H-[Orn(N5-OH,N5-Ac)][Orn(N5-OH,N5-Ac)][Orn(N5-OH,N5-Ac)][ξT][X1]-OH), the figures for the “Inhibiting areola diameter E. coli 14” value in test [1] (100 μg/ml) and in test [1] (1000 μg/ml) were 13 and 14, respectively. The results for the “Inhibiting areola diameter E. coli T 7” value in test [2] (100 μg/ml) and in test [2] (1000 μg/ml) were 14 and 15, respectively. Further, the “Inhibiting areola diameter Staph. 133” value in test [3] was determined as 25. Besides, the “Inhibiting areola diameter Prot. 1017” value in test [4] turned out to be 17.

Take `CC(=O)N(O)CCC[C@H](NC(=O)[C@H](CCCN(O)C(C)=O)NC(=O)[C@@H](N)CCCN(O)C(C)=O)C(=O)NC(C(=O)O)C(O)C1SC(n2ccc(=O)n(C)c2=O)C(O)C1O` (some centres unmarked) [Compound 24]: in test [1] (1000 μg/ml), the “Inhibiting areola diameter E. coli 14” value was 18. Moreover, the “Inhibiting areola diameter E. coli T 7” value in test [2] (100 μg/ml) stood at 18. Besides, the “Inhibiting areola diameter Prot. 1017” value in test [4] was 18.

With `CC(=O)N(O)CCC[C@H](N)C(=O)NC(C(=O)O)C(O)C1SC(n2ccc(=NC(N)=O)n(C)c2=O)C(O)C1O` (some centres unmarked) [Compound 11], the “Inhibiting areola diameter E. coli 14” value in test [1] (10 μg/ml) was found to be 18; in test [1] (100 μg/ml), 13. Moreover, the “Inhibiting areola diameter E. coli T 7” value in test [2] (10 μg/ml) worked out at 13; in test [2] (100 μg/ml), 18.

Consider `CC(=O)N(O)CCC[C@H](NC(=O)[C@H](CCCN(O)C(C)=O)NC(=O)[C@@H](N)CCCN(O)C(C)=O)C(=O)NC(C)C(=O)NC(C(=O)O)C(O)C1SC(n2ccc(=NC(N)=O)n(C)c2=O)C(O)C1O` (some centres unmarked) [Compound 9] (H-[Orn(N5-OH,N5-Ac)][Orn(N5-OH,N5-Ac)][Orn(N5-OH,N5-Ac)][ξA][X1]-OH), for which the “Inhibiting areola diameter E. coli 14” value in test [1] (10 μg/ml) is recorded as 30; in test [1] (100 μg/ml) it was 34. The “Inhibiting areola diameter E. coli T 7” value is 28 in test [2] (10 μg/ml) and 34 in test [2] (100 μg/ml).

Consider `CC(=O)N(O)CCC[C@H](NC(=O)[C@H](CCCN(O)C(C)=O)NC(=O)[C@@H](N)CCCN(O)C(C)=O)C(=O)NC(C(=O)O)C(O)C1SC(n2ccc(=NC(N)=O)n(C)c2=O)C(O)C1O` (some centres unmarked) [Compound 13], for which the “Inhibiting areola diameter E. coli 14” value in test [1] (1000 μg/ml) was 20. For the same molecule, the “Inhibiting areola diameter E. coli T 7” value in test [2] (1000 μg/ml) came to 19. In test [4], the “Inhibiting areola diameter Prot. 1017” value is 20.

(Values after patent US4626525A, “Antibiotics, preparation and use of and intermediates therefor” (Bayer Aktiengesellschaft, priority 1983, dated 1986).)
